Where two headings read alike, the source gives them in different places. Where no end group is shown, it is not given here.
Legend:
PfHsp70‐xT [1] = molecular target: T1, PfHsp70‐xT (Plasmodium falciparum, UniProt K7NTP5); assay: SPR nucleotide (ATP) binding assay; conditions: SPR steady state, PfHsp70‐xT immobilized as ligand, ATP 1.25-20 nM, 25°C, PBS-Tween pH 7.4; mean ± SD of three independent assays; read-out: K D (ATP analyte)
Description: (§1) The nucleotide binding assay was conducted at 25°C using a BioRad ProteOn XPR36 surface plasmon resonance (SPR) as previously described.22 The assay buffer was constituted of filter sterilized and degassed PBS‐Tween [([…], 1.46 mM KH2PO4, 137 mM NaCl, 3 mM KCl, 0.005% [v/v] Tween 20 and 20 mM EDTA; pH 7.4)]. PfHsp70‐x (1 μg mL^−1) and its truncated version, PfHsp70‐xT (1 μg mL^−1) were immobilized onto respective ProteOn HTE sensor chips as ligands. At these concentrations, we achieved 190 response units (RU) for PfHsp70‐x and 195 RU for PfHsp70‐xT per immobilization surface. Varying concentrations (1.25 nM, 2.50 nM, 5 nM 10 nM and 20 nM) of the analyte (ATP) were injected at a flow rate of 100 μL min^−1 in each horizontal channel and association and dissociation was allowed to occur and monitored for 10 minutes. Steady state equilibrium constant data was processed and analyzed using ProteOn Manager software version 3.1.0.6.

PfHsp70‐x [2] = molecular target: T2, PfHsp70‐x (Plasmodium falciparum, UniProt K7NTP5); assay: SPR nucleotide (ATP) binding assay; conditions: SPR steady state, PfHsp70‐x immobilized as ligand, ATP 1.25-20 nM, 25°C, PBS-Tween pH 7.4; mean ± SD of three independent assays; read-out: K D (ATP analyte)
T2 sequence (K7NTP5 entry or part of it): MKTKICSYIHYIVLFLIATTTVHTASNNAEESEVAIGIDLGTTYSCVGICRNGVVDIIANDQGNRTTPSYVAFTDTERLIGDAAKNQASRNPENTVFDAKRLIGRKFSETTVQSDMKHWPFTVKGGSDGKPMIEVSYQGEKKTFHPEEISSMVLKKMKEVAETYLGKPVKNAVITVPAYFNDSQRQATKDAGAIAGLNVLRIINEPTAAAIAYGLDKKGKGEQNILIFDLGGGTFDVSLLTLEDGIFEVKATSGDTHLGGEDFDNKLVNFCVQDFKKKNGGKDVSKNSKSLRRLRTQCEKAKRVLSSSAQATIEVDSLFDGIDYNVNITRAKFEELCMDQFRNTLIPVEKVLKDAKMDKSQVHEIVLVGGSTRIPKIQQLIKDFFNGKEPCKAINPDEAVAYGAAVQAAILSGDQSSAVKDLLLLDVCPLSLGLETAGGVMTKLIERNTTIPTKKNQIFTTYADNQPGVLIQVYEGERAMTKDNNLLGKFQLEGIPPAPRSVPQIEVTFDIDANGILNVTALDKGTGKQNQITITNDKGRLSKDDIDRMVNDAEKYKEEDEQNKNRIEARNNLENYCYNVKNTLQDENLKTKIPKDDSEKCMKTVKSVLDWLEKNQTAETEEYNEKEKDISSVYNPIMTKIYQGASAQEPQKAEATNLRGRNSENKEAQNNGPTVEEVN
Description: as §1

PfHsp70‐x [3] = molecular target: T2, PfHsp70‐x; assay: SPR peptide substrate binding kinetics; conditions: mean ± SD; for Kd: K D, peptide 1.25-20 nM, 25°C, PBS-Tween; for Kd / ka association rate constant: SPR, PfHsp70‐x ligand; for koff: read-out: kd dissociation rate constant, SPR, PfHsp70‐x ligand
Description: (§2) Association of PfHsp70‐x/PfHsp70‐xT with synthetic peptides that represent typical Hsp70 substrates26 was investigated using surface plasmon resonance (SPR) analysis as previously described.22, 24 Briefly, PfHsp70‐x and PfHsp70‐xT were immobilized onto respective ProteOn GLC sensor chips as ligands. PfHsp70‐x, PfHsp70‐xT (as ligands) were immobilized at concentrations of 0.5 and 1 μg mL^−1. At these concentrations we achieved 190 response units (RU) for PfHsp70‐x, and 193 RU for PfHsp70‐xT per immobilization surface. The assay was conducted at 25°C. Filter sterilized and degassed PBS‐Tween was used as the running buffer. As analytes, aliquots of peptides, representing typical Hsp70 substrates (NRLLTG, NRNNTG, ALLLMYRR, ANNNMYRR, GFRVVLMYRF, GFRNNNMYRF) were prepared at final concentration of 1.25, 2.50, 5, 10, and 20 nM and were injected at 50 μL min^−1 in each horizontal channel. Association was allowed for 2 minutes, dissociation was monitored for 10 minutes. The assay was repeated in the presence of nucleotides 2 mM ATP/ADP. The final data were determined by substracting the baseline RU (buffer containing ATP/ADP without analyte peptide). The association rate constant, dissociation rate constant and equilibrium constant data were analyzed using ProteOn Manager software version 3.1.0.6. by concatenating the responses of the analyte at variable concentrations.

PfHsp70‐xT [4] = molecular target: T1, PfHsp70‐xT; assay: SPR peptide substrate binding kinetics; design: ka association rate constant: scale not given here; conditions: mean ± SD; for Kd: K D, peptide 1.25-20 nM, 25°C, PBS-Tween; for Kd / ka association rate constant: SPR, PfHsp70‐xT ligand; for koff: read-out: kd dissociation rate constant, SPR, PfHsp70‐xT ligand
Description: as §2

PfHsp70‐x [5] = molecular target: T2, PfHsp70‐x; assay: SPR analysis of association with hHop; format: binding; conditions: 5 mM ATP versus no nucleotide / ADP
Description: The direct association between PfHsp70‐x and hHop was further explored using SPR analysis. The assay was conducted at 25°C using filter sterilized and degassed PBS‐Tween running buffer [(8 mM Na2HPO4, 1.46 mM KH2PO4, 137 mM NaCl, 3 mM KCl, 0.005% [v/v] Tween 20 and 20 mM EDTA; pH 7.4)] as previously described.22, 24 The recombinant PfHsp70‐x /PfHsp70‐xT (1 μg mL^−1) and BSA (as control) were immobilized onto respective ProteOn GLC sensor chips as ligands. As analyte, the recombinant hHop at varying concentrations (125, 250, 500, 1 000, and 2 000 nM) was passed over the immobilized proteins. The analytes were injected at flow rate of 50 μL min^−1 and association and dissociation occurred in a period of 10 minutes. The assay was then repeated in the presence of 5 mM ADP/ATP. The association rate constant, dissociation rate constant, and equilibrium constant data were processed and analyzed using ProteOn Manager software version 3.1.0.6 involving concatenating the responses of the analyte at variable concentrations.

PfHsp70‐x [6] = molecular target: T2, PfHsp70‐x; assay: ELISA of direct association with hHop; format: binding; conditions: Hop analyte 0.137-300 nM
Description: The direct association of hHop with PfHsp70‐x was further confirmed using an enzyme linked immunosorbent assay (ELISA) as previously described27 with minor modifications. Briefly, recombinant PfHsp70‐x/PfHsp70‐xT proteins and control BSA (5 μg/mL) were added to wells overnight in 50 mM NaHCO3, pH 9.3 at 4°C. The wells were washed at least three times with TBST, between each subsequent step. After blocking with 1% BSA in TBST, recombinant PfHop protein (analyte) was added in serial dilutions (0.137–300 nM) in the presence or absence of nucleotides (5 mM ATP/ADP) for 2 hours at 25°C. Then the wells were incubated with α‐PfHop primary antibody for 1 hour. Next, primary antibody was incubated with HRP conjugated goat raised anti‐rabbit IgG for 1 hour. HRP development was assayed with TMB substrate solution (Bio‐Scientific, USA) and monitored at 370 nm using a SpectraMax M3 microplate reader (Molecular Devices, USA) every 5 minutes for 30 minutes.

PfHsp70‐xT [7] = molecular target: T1, PfHsp70‐xT; assay: Slot blot assay of direct association with hHop; format: binding; conditions: hHop immobilized 2, 4, 8 μg, overlaid with PfHsp70‐xT 10 μg/mL
Description: (§3) Recombinant forms of hHop, control (bovine serum albumin), PfHsp70‐x (positive control) were immobilized onto the nitrocellulose membrane using Bio‐Dot SF apparatus as previously described 22. The proteins were immobilized at final amounts of 2, 4, and 8 μg each respectively per lane. The membrane was blocked with 5% (w/v) fat‐free milk in TBST (50 mM Tris‐HCl pH 7.5, 150 mM NaCl, 0.1% [v/v] Tween 20) and overlaid with either PfHsp70‐x/PfHsp70‐xT (10 μg mL^−1) in the absence and presence of 5 mM ATP/ADP and incubated overnight at 4°C, followed by three washes with TBST for 15 minutes. The nucleotide concentrations were maintained in the subsequent steps of the protocol. Protein was detected by Western blot technique using rabbit raised α‐PfHsp70‐x [1:2000] (Genscript, USA) as primary antibodies and goat raised α‐rabbit IgG secondary HRP‐conjugated antibody [1:4000] (Sigma–Aldrich, USA). Imaging of the protein bands was conducted using the ECL kit as per manufacturer's instructions. The images were captured using ChemiDoc imaging system (Bio‐Rad, USA).

PfHsp70‐x [8] = molecular target: T2, PfHsp70‐x; assay: Slot blot assay of direct association with hHop; format: binding
Description: as §3

T1 sequence (K7NTP5 entry or part of it): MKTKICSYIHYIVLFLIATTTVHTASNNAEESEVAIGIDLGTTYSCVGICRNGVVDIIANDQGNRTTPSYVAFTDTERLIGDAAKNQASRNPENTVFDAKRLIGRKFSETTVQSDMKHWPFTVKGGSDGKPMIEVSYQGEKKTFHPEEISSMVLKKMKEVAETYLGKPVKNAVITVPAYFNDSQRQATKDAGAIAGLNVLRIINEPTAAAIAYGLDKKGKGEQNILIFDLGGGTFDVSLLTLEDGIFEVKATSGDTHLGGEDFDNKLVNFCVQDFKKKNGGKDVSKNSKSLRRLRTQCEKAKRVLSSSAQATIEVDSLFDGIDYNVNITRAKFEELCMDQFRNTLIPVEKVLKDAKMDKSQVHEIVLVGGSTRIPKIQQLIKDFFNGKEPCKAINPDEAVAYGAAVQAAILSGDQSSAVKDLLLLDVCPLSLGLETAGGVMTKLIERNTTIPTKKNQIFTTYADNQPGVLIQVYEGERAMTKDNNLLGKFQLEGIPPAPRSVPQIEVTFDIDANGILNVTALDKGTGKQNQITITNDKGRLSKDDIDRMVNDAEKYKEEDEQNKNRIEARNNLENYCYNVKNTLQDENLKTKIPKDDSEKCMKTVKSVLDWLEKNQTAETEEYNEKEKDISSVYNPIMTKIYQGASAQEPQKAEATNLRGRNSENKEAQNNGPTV

Compound: Nc1ncnc2c1ncn2[C@@H]1O[C@H](COP(=O)(O)OP(=O)(O)OP(=O)(O)O)[C@@H](O)[C@H]1O [ATP]
- Kd (PfHsp70‐xT [1]): 11200 nM
- Kd (PfHsp70‐x [2]): 110 nM

Compound: ANNNMYRR [ANNNMYRR]
- Kd (PfHsp70‐x [3]; no nucleotide (NN)): 2.21 nM

Compound: GFTNNNMYRF [GFTNNNMYRF]
- Kd (PfHsp70‐xT [4]; 2 mM ADP): 1.4 nM
- Kd (PfHsp70‐xT [4]; no nucleotide (NN)): 2.2 nM
- Kd (PfHsp70‐x [3]; 2 mM ADP): 6.25 nM
- Kd (PfHsp70‐x [3]; no nucleotide (NN)): 2.4 nM

Compound: GFTVVLMYRF [GFTVVLMYRF, reference compound]
- koff (PfHsp70‐x [3]; + ADP): 1e-05 s⁻¹
- koff (PfHsp70‐x [3]; + ATP): 0.000117 s⁻¹
- koff (PfHsp70‐x [3]; no nucleotide): 1.03e-05 s⁻¹

Compound: NRLLTG [NRLLTG, reference compound]
- ka association rate constant (PfHsp70‐xT [4]; + ADP): 6.0 (± 0.51) 1/ Ms
- ka association rate constant (PfHsp70‐xT [4]; no nucleotide): 3.15 (± 0.31) 1/ Ms
- koff (PfHsp70‐xT [4]; + ADP): 1e-05 s⁻¹
- koff (PfHsp70‐xT [4]; + ATP): 0.000161 s⁻¹
- koff (PfHsp70‐xT [4]; no nucleotide): 8.67e-06 s⁻¹
- ka association rate constant (PfHsp70‐x [3]; + ADP): 1.62 (± 0. 22) 1/ Ms
- ka association rate constant (PfHsp70‐x [3]; + ATP): 1.21 (± 0.23) 1/ Ms
- koff (PfHsp70‐x [3]; + ADP): 1.01e-05 s⁻¹
- koff (PfHsp70‐x [3]; + ATP): 1.01e-05 s⁻¹
- koff (PfHsp70‐x [3]; no nucleotide): 9.97e-06 s⁻¹

Compound: NRNNTG [NRNNTG]
- Kd (PfHsp70‐xT [4]; 2 mM ADP): 1.69 nM
- Kd (PfHsp70‐xT [4]; no nucleotide (NN)): 7.92 nM
- ka association rate constant (PfHsp70‐xT [4]; + ADP): 5.96 (±0.1) 1/ Ms
- ka association rate constant (PfHsp70‐xT [4]; + ATP): 9.37 (±0.17) 1/ Ms
- ka association rate constant (PfHsp70‐xT [4]; no nucleotide): 3.52 (± 0.18) 1/ Ms
- koff (PfHsp70‐xT [4]; + ADP): 1.01e-08 s⁻¹
- koff (PfHsp70‐xT [4]; + ATP): 1.01e-05 s⁻¹
- koff (PfHsp70‐xT [4]; no nucleotide): 2.79e-08 s⁻¹
- Kd (PfHsp70‐x [3]; 2 mM ADP): 4.31 nM
- Kd (PfHsp70‐x [3]; no nucleotide (NN)): 6.91 nM
- ka association rate constant (PfHsp70‐x [3]; + ADP): 2.55 (± 0.23) 1/ Ms
- ka association rate constant (PfHsp70‐x [3]; + ATP): 7.33 (± 0.22) 1/ Ms
- ka association rate constant (PfHsp70‐x [3]; no nucleotide): 2.43 (± 0.45) 1/ Ms
- koff (PfHsp70‐x [3]; + ADP): 1.03e-07 s⁻¹
- koff (PfHsp70‐x [3]; + ATP): 1.01e-06 s⁻¹
- koff (PfHsp70‐x [3]; no nucleotide): 9.49e-07 s⁻¹

Compound: hHop: recombinant N-terminally His-tagged human Hsp70‐Hsp90 organizing protein
- inhibition of the PfHsp70‐x-hHop association by ATP (PfHsp70‐x [5]): at least tenfold
- association with hHop in ELISA (PfHsp70‐x [6]; PfHsp70‐x immobilized 5 μg/mL, 2 h, 25°C, no nucleotide): occurs in a concentration dependent form
- association with hHop in ELISA (PfHsp70‐x [6]; PfHsp70‐x immobilized, 5 mM ADP): occurs in a concentration dependent form
- association with hHop in ELISA (PfHsp70‐x [6]; PfHsp70‐x immobilized, 5 mM ATP): inhibited the association
- association with hHop in slot blot (PfHsp70‐xT [7]): not observed
- association with hHop in slot blot (PfHsp70‐x [8]; hHop immobilized 2, 4, 8 μg, overlaid with PfHsp70‐x 10 μg/mL, no nucleotide): occur in a concentration‐dependent manner
- association with hHop in slot blot (PfHsp70‐x [8]; overlaid with PfHsp70‐x, 5 mM ADP): appeared to enhance the association
- association with hHop in slot blot (PfHsp70‐x [8]; overlaid with PfHsp70‐x, 5 mM ATP): abrogated the interaction

Reference: paper PMC6282620, “Structural and biochemical characterization of Plasmodium falciparum Hsp70‐x reveals functional versatility of its C‐terminal EEVN motif” (Proteins, 2018)
